Laboratory results published in ChEMBL document CHEMBL1139055, “Structure-activity relationships of pentacycloundecylamines at the N-methyl-d-aspartate receptor” (Bioorg Med Chem, 2007).
The source made the active and inactive calls. No cut-off for these calls is given here.

Columns and labels:
[1] = Antagonist activity at NMDA receptor in ICR mouse synaptoneurosome assessed as inhibition of NMDA/Gly-mediated 45-calcium influx; format: functional
[2] = organism: Mus musculus; assay: Displacement of [3H]MK-801 from NMDA receptor in ICR mouse synaptoneurosome at 100 uM
[3] = organism: Mus musculus; assay: Displacement of [3H]glutamate from NMDA receptor in ICR mouse synaptoneurosome
[4] = organism: Mus musculus; assay: Displacement of [3H]TCP from NMDA receptor in ICR mouse synaptoneurosome at 100 uM
[5] = Antagonist activity at NMDA receptor in ICR mouse synaptoneurosome assessed as inhibition of NMDA/Gly-mediated 45-calcium influx at 2 uM relative to control; format: functional

Row | SMILES | IC50 [1] [µM] | Activity [2] | Activity [3] | Activity [4] | Inhibition [5] [%]
1 | OC12CC3C4C5CC6C4C3C1C(NCc1ccccc1)C6C52 (configuration not stated) | 36.2 | – | – | – | –
2 | NC1C2C3CC4C1C1C2CC3C41 (configuration not stated) | 4.06 | inactive | inactive | inactive | –
3 | c1ccc(CNC23OC4C5C6CC(C7C6C4C72)C53)cc1 (configuration not stated) | 2.98 | inactive | inactive | 20% | 108.9
4 | CC12CC3CC(C)(C1)CC(N)(C3)C2 [MEMANTINE] | 3.05 | 90% | – | 67% | –
5 | COc1cccc(CNC23OC4C5C6CC(C7C6C4C72)C53)c1 (configuration not stated) | 20.7 | – | – | – | –
6 | O=[N+]([O-])c1cccc(CNC23OC4C5C6CC(C7C6C4C72)C53)c1 (configuration not stated) | 32.8 | – | – | – | –
7 | c1ccc(CCNC23OC4C5C6CC(C7C6C4C72)C53)cc1 (configuration not stated) | 23.5 | inactive | – | 44% | –
8 | O=[N+]([O-])c1ccccc1CNC12OC3C4C5CC(C6C5C3C61)C42 (configuration not stated) | 37.6 | – | – | – | –
9 | C[C@]12N[C@H](Cc3ccccc31)c1ccccc12 [DIZOCILPINE] | 1.23 | 73% | – | 65% | –
